± gives the uncertainty stated by the source.
Test: xn = mol fraction of the nth substance listed
Details: 100 kPa

C[N+](C)(C)CCC[n+]1ccccc1.N#C[N-]C#N.N#C[N-]C#N + CCO
viscosity [mPa·s]
Details | x1 = 0.0999 | x1 = 0.2001 | x1 = 0.3002 | x1 = 0.3999 | x1 = 0.5002 | x1 = 0.6001 | x1 = 0.7003 | x1 = 0.7998 | x1 = 0.8995 | x1 = 1
293.15 K | 6.55 ± 0.66 | 15.6 ± 1.6 | 38 ± 3.8 | 75.8 ± 7.7 | 137 ± 14 | 243 ± 27 | 391 ± 46 | 614 ± 78 | 1038 ± 140 | 2191 ± 340
303.15 K | 5.09 ± 0.51 | 11.8 ± 1.2 | 25.6 ± 2.6 | 49.2 ± 4.9 | 88.3 ± 9 | 138 ± 14 | 205 ± 22 | 291 ± 33 | 435 ± 52 | 830 ± 110
313.15 K | 4.23 ± 0.43 | 9.28 ± 0.93 | 20.7 ± 2.1 | 34.4 ± 3.5 | 58.2 ± 5.8 | 84.3 ± 8.5 | 119 ± 12 | 161 ± 17 | 229 ± 25 | 386 ± 46
323.15 K | 3.55 ± 0.36 | 7.47 ± 0.75 | 15.7 ± 1.6 | 25.2 ± 2.5 | 38.9 ± 3.9 | 56.2 ± 5.6 | 75.8 ± 7.6 | 99 ± 10 | 134 ± 14 | 210 ± 23
333.15 K | 3.1 ± 0.31 | 6.12 ± 0.62 | 11.9 ± 1.2 | 18 ± 1.8 | 28 ± 2.8 | 39.6 ± 4 | 51.4 ± 5.1 | 65.1 ± 6.5 | 85.3 ± 8.6 | 127 ± 13

— the CheMixHub ionic liquid set
